# Measured values from PubChem BioAssay AID1259407 (Chemical Carcinogenesis Research Information System (CCRIS), 2018).
# Activity calls are given as the source filed them. How the calls were made is not given here.
# Test system: CCRIS mutagenicity, Ames/micronucleus/aberration tests
# Assay: CCRIS mutagenicity studies
structure (smiles),measurement,setting,value
NCCNCCO,mutagenic call,"Test System: AMES SALMONELLA TYPHIMURIUM, Strain/Indicator: TA98, Metabolic Activation: HAMSTER, LIVER, S-9, AROCLOR 1254 (10%), Method: PREINCUBATION",inactive; negative
same,mutagenic call,"Test System: AMES SALMONELLA TYPHIMURIUM, Strain/Indicator: TA98, Metabolic Activation: NONE, Method: PREINCUBATION",inactive; negative
same,mutagenic call,"Test System: AMES SALMONELLA TYPHIMURIUM, Strain/Indicator: TA98, Metabolic Activation: NONE, Method: STANDARD PLATE",inactive; negative
same,mutagenic call,"Test System: AMES SALMONELLA TYPHIMURIUM, Strain/Indicator: TA98, Metabolic Activation: RAT, LIVER, S-9, AROCLOR 1254 (10%), Method: PREINCUBATION",inactive; negative
same,mutagenic call,"Test System: AMES SALMONELLA TYPHIMURIUM, Strain/Indicator: TA98, Metabolic Activation: RAT, LIVER, S-9, AROCLOR 1254, Method: STANDARD PLATE",inactive; negative
same,mutagenic call,"Test System: AMES SALMONELLA TYPHIMURIUM, Strain/Indicator: TA98, Metabolic Activation: RAT, LIVER, S-9, PCB, Method: PREINCUBATION",inactive; negative
same,mutagenic call,"Test System: AMES SALMONELLA TYPHIMURIUM, Strain/Indicator: TA100, Metabolic Activation: HAMSTER, LIVER, S-9, AROCLOR 1254 (10%), Method: PREINCUBATION",inactive; negative
same,mutagenic call,"Test System: AMES SALMONELLA TYPHIMURIUM, Strain/Indicator: TA100, Metabolic Activation: NONE, Method: PREINCUBATION",inactive; negative
same,mutagenic call,"Test System: AMES SALMONELLA TYPHIMURIUM, Strain/Indicator: TA100, Metabolic Activation: NONE, Method: STANDARD PLATE",inactive; negative
same,mutagenic call,"Test System: AMES SALMONELLA TYPHIMURIUM, Strain/Indicator: TA100, Metabolic Activation: RAT, LIVER, S-9, AROCLOR 1254 (10%), Method: PREINCUBATION",inactive; negative
same,mutagenic call,"Test System: AMES SALMONELLA TYPHIMURIUM, Strain/Indicator: TA100, Metabolic Activation: RAT, LIVER, S-9, AROCLOR 1254, Method: STANDARD PLATE",inactive; negative
same,mutagenic call,"Test System: AMES SALMONELLA TYPHIMURIUM, Strain/Indicator: TA100, Metabolic Activation: RAT, LIVER, S-9, PCB, Method: PREINCUBATION",inactive; negative
same,mutagenic call,"Test System: AMES SALMONELLA TYPHIMURIUM, Strain/Indicator: TA1535, Metabolic Activation: HAMSTER, LIVER, S-9, AROCLOR 1254 (10 OR 12%), Method: PREINCUBATION",active; positive
same,mutagenic call,"Test System: AMES SALMONELLA TYPHIMURIUM, Strain/Indicator: TA1535, Metabolic Activation: NONE, Method: PREINCUBATION",inactive; negative
same,mutagenic call,"Test System: AMES SALMONELLA TYPHIMURIUM, Strain/Indicator: TA1535, Metabolic Activation: NONE, Method: STANDARD PLATE",inactive; negative
same,mutagenic call,"Test System: AMES SALMONELLA TYPHIMURIUM, Strain/Indicator: TA1535, Metabolic Activation: RAT, LIVER, S-9, AROCLOR 1254 (10%), Method: PREINCUBATION",active; positive
same,mutagenic call,"Test System: AMES SALMONELLA TYPHIMURIUM, Strain/Indicator: TA1535, Metabolic Activation: RAT, LIVER, S-9, AROCLOR 1254, Method: STANDARD PLATE",inactive; negative
same,mutagenic call,"Test System: AMES SALMONELLA TYPHIMURIUM, Strain/Indicator: TA1537, Metabolic Activation: HAMSTER, LIVER, S-9, AROCLOR 1254 (10%), Method: PREINCUBATION",inactive; negative
same,mutagenic call,"Test System: AMES SALMONELLA TYPHIMURIUM, Strain/Indicator: TA1537, Metabolic Activation: NONE, Method: PREINCUBATION",inactive; negative
same,mutagenic call,"Test System: AMES SALMONELLA TYPHIMURIUM, Strain/Indicator: TA1537, Metabolic Activation: NONE, Method: STANDARD PLATE",inactive; negative
same,mutagenic call,"Test System: AMES SALMONELLA TYPHIMURIUM, Strain/Indicator: TA1537, Metabolic Activation: RAT, LIVER, S-9, AROCLOR 1254 (10%), Method: PREINCUBATION",inactive; negative
same,mutagenic call,"Test System: AMES SALMONELLA TYPHIMURIUM, Strain/Indicator: TA1537, Metabolic Activation: RAT, LIVER, S-9, AROCLOR 1254, Method: STANDARD PLATE",inactive; negative
same,mutagenic call,"Test System: AMES SALMONELLA TYPHIMURIUM, Strain/Indicator: TA1538, Metabolic Activation: NONE, Method: STANDARD PLATE",inactive; negative
same,mutagenic call,"Test System: AMES SALMONELLA TYPHIMURIUM, Strain/Indicator: TA1538, Metabolic Activation: RAT, LIVER, S-9, AROCLOR 1254, Method: STANDARD PLATE",inactive; negative
same,mutagenic call,"Test System: CHINESE HAMSTER OVARY, Strain/Indicator: CHO (HGPRT)/6-THIOGUANINE, Metabolic Activation: NONE",inactive; negative
same,mutagenic call,"Test System: CHINESE HAMSTER OVARY, Strain/Indicator: CHO (HGPRT)/6-THIOGUANINE, Metabolic Activation: RAT, LIVER, S-9, AROCLOR 1254",inactive; negative
same,mutagenic call,"Test System: UDS RAT HEPATOCYTES, Strain/Indicator: THY INCORP, Metabolic Activation: NONE, Method: SCINTILLATION SPECTROMETRY",inactive; negative
